PubChem BioAssay AID330 (DTP/NCI, 2004)
Several values for one entry are separate records, joined by “and”; a condition that tells them apart may be missing. Equal values may be shown once. Inconclusive results and toxic doses are left out. Rule for the calls: active = survival T/C of 150% or more; inactive = T/C below 125% in these data.

Test system: P388 leukemia ip, CD2F1 mice, survival T/C
Test: NCI In Vivo Anticancer Drug Screen. Data for tumor model P388 Leukemia (intraperitoneal) in CD2F1 (CDF1) mice
Settings: endpoint: median survival time, higher = longer survival
Procedure, shortened: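 Mice carrying the transplanted tumor received test compound or vehicle. Survival was recorded in each group, and the value is the treated-group measurement divided by that of the vehicle-treated control group.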

[1] = dose: 50.0 mg/kg/injection, schedule: Q01DX005 (ip), vehicle: Klucel (hydroxypropylcellulose) (HPC)
[2] = dose: 100.0 mg/kg/injection, schedule: Q01DX005 (ip), vehicle: Klucel (hydroxypropylcellulose) (HPC)
[3] = dose: 200.0 mg/kg/injection, schedule: Q01DX005 (ip), vehicle: Klucel (hydroxypropylcellulose) (HPC)
[4] = dose: 15.0 mg/kg/injection, schedule: Q01DX005 (ip), vehicle: Klucel (hydroxypropylcellulose) (HPC)
[5] = dose: 30.0 mg/kg/injection, schedule: Q01DX005 (ip), vehicle: Klucel (hydroxypropylcellulose) (HPC)
[6] = dose: 50.0 mg/kg/injection, schedule: Q01DX009 (ip), vehicle: Klucel (hydroxypropylcellulose) (HPC)
[7] = dose: 100.0 mg/kg/injection, schedule: Q01DX009 (ip), vehicle: Klucel (hydroxypropylcellulose) (HPC)
[8] = dose: 200.0 mg/kg/injection, schedule: Q01DX009 (ip), vehicle: Klucel (hydroxypropylcellulose) (HPC)
[9] = dose: 100.0 mg/kg/injection, schedule: Q04DX003 (ip), vehicle: saline
[10] = dose: 15.0 mg/kg/injection, schedule: Q01DX005 (ip), vehicle: saline
[11] = dose: 30.0 mg/kg/injection, schedule: Q01DX005 (ip), vehicle: saline
[12] = dose: 50.0 mg/kg/injection, schedule: Q01DX009 (ip), vehicle: saline with Tween-80
[13] = dose: 100.0 mg/kg/injection, schedule: Q01DX009 (ip), vehicle: saline with Tween-80
[14] = dose: 200.0 mg/kg/injection, schedule: Q01DX009 (ip), vehicle: saline with Tween-80
[15] = dose: 25.0 mg/kg/injection, schedule: Q01DX009 (ip), vehicle: Klucel (hydroxypropylcellulose) (HPC)
[16] = dose: 60.0 mg/kg/injection, schedule: Q01DX005 (ip), vehicle: saline with Tween-80
[17] = dose: 120.0 mg/kg/injection, schedule: Q01DX005 (ip), vehicle: saline with Tween-80
[18] = dose: 240.0 mg/kg/injection, schedule: Q01DX005 (ip), vehicle: saline with Tween-80

Measured: T/C

O=c1c2c(-c3cc(-c4ccccc4)nc4[nH]n(-c5ccccc5)c(=O)c34)cc(-c3ccccc3)nc2[nH]n1-c1ccccc1
inactive: [1] 96 % of control | [2] 107 % of control | [3] 96 % of control

CCN(CC)CCOc1cccc(NC(=O)CN(CC)CC)c1
inactive: [4] 106 % of control | [5] 103 % of control | dose: 60.0 mg/kg/injection, schedule: Q01DX005 (ip), vehicle: Klucel (hydroxypropylcellulose) (HPC) 105 % of control and 96 % of control

CC(C[N+](C)(C)C)OC(N)=O (stereo not drawn)
inactive: dose: 50.0 mg/kg/injection, schedule: Q01DX001 (ip), vehicle: saline 101 % of control | dose: 100.0 mg/kg/injection, schedule: Q01DX001 (ip), vehicle: saline 100 % of control | dose: 200.0 mg/kg/injection, schedule: Q01DX001 (ip), vehicle: saline 108 % of control

CSc1ccc(NC(=O)Oc2ccccc2I)cc1
inactive: [6] 104 % of control | [7] 104 % of control | [8] 109 % of control

O=C(CCCCl)CC(O)(C(F)(F)Cl)C(F)(F)Cl
inactive: dose: 25.0 mg/kg/injection, schedule: Q04DX003 (ip), vehicle: saline 100 % of control | dose: 50.0 mg/kg/injection, schedule: Q04DX003 (ip), vehicle: saline 100 % of control | [9] 95 % of control

COc1ccc(OC)c2c(NCCNCCO)cc(NCCNCCO)nc12
inactive: [10] 100 % of control | [11] 95 % of control | dose: 60.0 mg/kg/injection, schedule: Q01DX005 (ip), vehicle: saline 97 % of control

O=C1Cc2ccccc2N1C1c2ccccc2C=Cc2ccccc21
inactive: [12] 95 % of control | [13] 86 % of control | [14] 89 % of control

COc1ccc(-n2cnc3[nH]ncc3c2=O)cc1
inactive: dose: 7.5 mg/kg/injection, schedule: Q01DX005 (ip), vehicle: Klucel (hydroxypropylcellulose) (HPC) 104 % of control | [4] 106 % of control | [5] 110 % of control

CC(C)COC(=O)C1(N)CCCC1
inactive: [9] 95 % of control | dose: 200.0 mg/kg/injection, schedule: Q04DX003 (ip), vehicle: saline 104 % of control | dose: 400.0 mg/kg/injection, schedule: Q04DX003 (ip), vehicle: saline 100 % of control

Clc1cccc(N(C2=NCCS2)C2=NCCS2)c1
inactive: [15] 107 % of control | [6] 104 % of control | [7] 107 % of control | [8] 104 % of control

CSc1nc(N)c(NS(=O)(=O)c2ccccc2[N+](=O)[O-])c(=O)[nH]1
inactive: [1] 100 % of control | [2] 90 % of control | [3] 90 % of control

C1=C2NNC(c3ccccc3)=C(c3ccccc3)C2=CCC1 (tested in a mixture with another compound)
inactive: [16] 96 % of control | [17] 92 % of control | [18] 91 % of control

c1cc2c(cc1NC1=NCCO1)CCC2
inactive: dose: 6.25 mg/kg/injection, schedule: Q04DX003 (ip), vehicle: saline with Tween-80 100 % of control | dose: 12.5 mg/kg/injection, schedule: Q04DX003 (ip), vehicle: saline with Tween-80 100 % of control | dose: 25.0 mg/kg/injection, schedule: Q04DX003 (ip), vehicle: saline with Tween-80 100 % of control

CCOP(O)(=S)OCC.[Nd]
inactive: dose: 100.0 mg/kg/injection, schedule: Q01DX001 (ip), vehicle: Klucel (hydroxypropylcellulose) (HPC) 89 % of control | dose: 200.0 mg/kg/injection, schedule: Q01DX001 (ip), vehicle: Klucel (hydroxypropylcellulose) (HPC) 91 % of control | dose: 400.0 mg/kg/injection, schedule: Q01DX001 (ip), vehicle: Klucel (hydroxypropylcellulose) (HPC) 99 % of control

Cc1[nH]c2ccc(N(C)C)cc2c(=O)c1CN1CCOCC1
inactive: [6] 107 % of control | [7] 115 % of control | [8] 107 % of control

O=C1Nc2ccccc2/C1=N/N1C(=O)CSC1=S
inactive: dose: 0.93 mg/kg/injection, schedule: Q01DX005 (ip), vehicle: Klucel (hydroxypropylcellulose) (HPC) 97 % of control | dose: 1.87 mg/kg/injection, schedule: Q01DX005 (ip), vehicle: Klucel (hydroxypropylcellulose) (HPC) 94 % of control | dose: 3.75 mg/kg/injection, schedule: Q01DX005 (ip), vehicle: Klucel (hydroxypropylcellulose) (HPC) 88 % of control

CCCN1COC(OCCN(CC)CC)C(C)(C)C1 (stereo not drawn)
inactive: [12] 108 % of control | [13] 113 % of control | [14] 107 % of control

NC(CSCC(=O)O)C(=O)O (stereo not drawn)
inactive: [15] 95 % of control | [6] 111 % of control | [7] 105 % of control | [8] 98 % of control

CCOC(=O)c1ccc(NC(=O)Nc2ccccc2F)cc1
inactive: [16] 95 % of control | [17] 95 % of control | [18] 104 % of control

CC(C)=CCc1cc(C2COc3cc4c(c(O)c3C2=O)C=CC(C)(C)O4)c(O)cc1O (stereo not drawn)
inactive: dose: 8.0 mg/kg/injection, schedule: Q01DX009 (ip), vehicle: Klucel (hydroxypropylcellulose) (HPC) 98 % of control | dose: 16.0 mg/kg/injection, schedule: Q01DX009 (ip), vehicle: Klucel (hydroxypropylcellulose) (HPC) 101 % of control | dose: 32.0 mg/kg/injection, schedule: Q01DX009 (ip), vehicle: Klucel (hydroxypropylcellulose) (HPC) 100 % of control | dose: 64.0 mg/kg/injection, schedule: Q01DX009 (ip), vehicle: Klucel (hydroxypropylcellulose) (HPC) 98 % of control

C1=CSC(=C2SC=CS2)S1
inactive: dose: 6.25 mg/kg/injection, schedule: Q01DX009 (ip), vehicle: saline with Tween-80 106 % of control | dose: 12.5 mg/kg/injection, schedule: Q01DX009 (ip), vehicle: saline with Tween-80 106 % of control and 97 % of control | dose: 25.0 mg/kg/injection, schedule: Q01DX009 (ip), vehicle: saline with Tween-80 102 % of control and 110 % of control | [12] 100 % of control and 106 % of control and 114 % of control | [13] 108 % of control | [14] 100 % of control

Nc1cc(Cl)c(N=Nc2ccccc2)c(N)n1
inactive: [13] 103 % of control | [14] 107 % of control | dose: 400.0 mg/kg/injection, schedule: Q01DX009 (ip), vehicle: saline with Tween-80 94 % of control

CC1OS(=O)(=O)C=C1Br (stereo not drawn)
inactive: dose: 100.0 mg/kg/injection, schedule: Q04DX003 (ip), vehicle: saline with Tween-80 108 % of control | dose: 200.0 mg/kg/injection, schedule: Q04DX003 (ip), vehicle: saline with Tween-80 97 % of control | dose: 400.0 mg/kg/injection, schedule: Q04DX003 (ip), vehicle: saline with Tween-80 89 % of control

C[N+](C)(C)c1ccc2c(c1)CCC/C2=N\N
inactive: dose: 1.56 mg/kg/injection, schedule: Q04DX003 (ip), vehicle: saline 100 % of control | dose: 3.13 mg/kg/injection, schedule: Q04DX003 (ip), vehicle: saline 100 % of control | dose: 6.25 mg/kg/injection, schedule: Q04DX003 (ip), vehicle: saline 97 % of control

CNC1C(O)C(OC2C(N)CC(N)C(OC3OC(C(C)O)C(O)C(O)C3N)C2O)OCC1(C)O (stereo not drawn)
inactive: dose: 7.5 mg/kg/injection, schedule: Q01DX005 (ip), vehicle: saline 108 % of control | [10] 107 % of control | [11] 101 % of control

Cc1cc(C)c(S(=O)(=O)N/N=C(\CBr)c2ccccc2)c(C)c1
inactive: dose: 7.5 mg/kg/injection, schedule: Q01DX005 (ip), vehicle: saline with Tween-80 97 % of control | dose: 15.0 mg/kg/injection, schedule: Q01DX005 (ip), vehicle: saline with Tween-80 91 % of control | dose: 30.0 mg/kg/injection, schedule: Q01DX005 (ip), vehicle: saline with Tween-80 102 % of control | [18] 89 % of control

CN(C)c1ccc(N=C2C(c3ccccc3)=[N+]([O-])c3ccccc32)cc1
inactive: [16] 93 % of control | [17] 93 % of control | [18] 100 % of control
